From US8937091B2 (Japan Science and Technology Agency, priority 2009, dated 2015)

Experiments:
[1] = test system: IICR (IP3 induced calcium release) in CHO cells; assay: Assay of IICR (IP3 induced calcium release)-inhibiting action; type: cell-based, Chinese hamster; details: CHO cells, 10 μM ATP; for inhibition at 10 µM / inhibition at 30 µM / inhibition at 100 µM: Cricetulus griseus, CHO, read-out: IICR level (percentage of inhibition)
Procedure: The extracellular fluid (i.e., medium) of cultured CHO cells was replaced by BSS containing calcium. One minute later, a test compound was added. Two minutes later, 10 μM ATP was added. The IICR-inhibiting action levels at different compound concentrations after the addition of ATP were determined as the percentage of inhibition (%) by evaluating the influence of the compound on the degree of increase in the intracellular calcium concentration.
(§1) Hereafter, the numerals in parentheses written after the TG level, the SOCE level, and the IICR level correspond to the test compound concentrations. The number following the name of each title compound used in the Examples below represents a compound ID number designated arbitrarily by the present inventors.

[2] = test system: SOCE (store operated calcium entry) in CHO cells; assay: Assay of SOCE (store operated calcium entry)-inhibiting action; type: cell-based, Chinese hamster; details: Cricetulus griseus, CHO, CHO cells, thapsigargin, read-out: SOCE level (percentage of inhibition); for inhibition at 10 µM: test compound 10 μmol; for inhibition at 30 µM: test compound 30 μmol; for inhibition at 100 µM: test compound 100 μmol
Procedure: The extracellular fluid (i.e., medium) of cultured Chinese hamster ovary (CHO) cells was replaced by BSS containing no calcium. One minute later, a test compound was added. Two minutes later, 1 μM thapsigargin was added to cause depletion of the intracellular calcium store. Nine minutes later, calcium chloride (final concentration: 2 mM) was added to the extracellular fluid. The SOCE-inhibiting action levels at different compound concentrations after the addition of calcium chloride were determined as the percentage of inhibition (%) by evaluating the influence of the compound on the degree of increase in the intracellular calcium concentration.
as §1

Row | SMILES | inhibition at 10 µM ([1]; test compound 10 μmol) [%] | inhibition at 30 µM ([1]; test compound 30 μmol) [%] | inhibition at 100 µM ([1]; test compound 100 μmol) [%] | inhibition at 10 µM [2] [%] | inhibition at 30 µM [2] [%] | inhibition at 100 µM [2] [%] | IICR level (percentage of inhibition) ([1]; test compound 10 μmol) [%] | IICR level (percentage of inhibition) ([1]; test compound 30 μmol) [%] | IICR level (percentage of inhibition) ([1]; test compound 100 μmol) [%]
1 | O=C(CCN1CCCCC1CO)c1cccs1 (stereo not drawn) [Example 127] | 20 | 20 | 50 | 0 | 0 | 10 | – | – | –
2 | O=C(CCNc1ccccc1S)c1cccs1 [Example 128, 2-(2-mercaptophenyl)aminoethylthiophenylketone] | 0 | 30 | 10 | 0 | 0 | 20 | – | – | –
3 | O=C(CCN(CCO)Cc1ccccc1)c1cnccn1 [Example 129, 2-(N-benzylhydroxyethyl)aminoethyl-2-pyrazylketone] | 0 | 50 | 90 | 0 | 0 | 0 | – | – | –
4 | O=C(CCN(CCO)CCO)c1ccco1 [Example 130, 2-(N-bis-hydroxyethyl)aminoethyl-2-furylketone] | – | – | – | 0 | 0 | 0 | 20 | 20 | 50
5 | CN1CCN(CCC(=O)c2ccccc2)CC1 [Example 131, 2-(N-methylpiperazyl)ethylphenylketone] | 30 | 20 | 50 | 0 | 0 | 0 | – | – | –
6 | O=C(CCN(CCO)c1ccccc1)c1ccco1 [Example 132, 2-(N-phenylhydroxyethyl)aminoethyl-2-furylketone] | 10 | 20 | 20 | 0 | 0 | 0 | – | – | –
7 | O=C(CCN(CCO)c1ccccc1)c1ccccc1 [Example 133, 2-(N-phenylhydroxyethyl)aminoethylphenylketone] | 20 | 20 | 30 | 0 | 0 | 0 | – | – | –
8 | O=C(CCN(CCO)c1ccccc1)c1ccncc1 [Example 134, 2-(N-phenylhydroxyethyl)aminoethyl-4-pyridylketone] | 20 | 20 | 30 | 0 | 0 | 0 | – | – | –
9 | O=C(CCN(CCO)Cc1ccccc1)c1ccncc1 [Example 135, 2-(N-benzylhydroxyethyl)aminoethyl-4-pyridylketone] | 20 | 10 | 0 | 0 | 0 | 0 | – | – | –
10 | Cc1ccc(C(=O)CCN(Cc2ccccc2)C(C)C)o1 [Example 136] | 50 | 60 | 80 | 0 | 0 | 20 | – | – | –
11 | Cc1ccc(C(=O)CCN(Cc2ccccc2)C(C)(C)C)o1 [Example 137, 2-(N-benzyl-t-butyl)aminoethyl-5-methyl-2-furylketone] | 40 | 50 | 50 | 0 | 0 | 0 | – | – | –
12 | Cc1ccc(C(=O)CCN(Cc2ccccc2)Cc2ccccc2)o1 [Example 138, 2-(N-dibenzyl)aminoethyl-5-methyl-2-furylketone] | 0 | 0 | 10 | 0 | 10 | 20 | – | – | –
13 | Cc1ccc(C(=O)CCN(CCO)Cc2ccccc2)o1 [Example 139, 2-(N-benzylhydroxyethyl)aminoethyl-5-methyl-2-furylketone] | 20 | 20 | 30 | 0 | 0 | 0 | – | – | –
